Source: paper PMC3501516, “Anti-Diabetic Efficacy and Impact on Amino Acid Metabolism of GRA1, a Novel Small-Molecule Glucagon Receptor Antagonist” (PLoS ONE, 2012)
Read-outs that look alike come from different tables or passages of the source.

Experiments:
[1] = target: T1, human GCGR (hGCGR) (Homo sapiens, UniProt P47871); test: Inhibition of glucagon-stimulated cAMP production in intact CHO cells expressing human GCGR; format: cell-based
T1 construct: expressed in transfected cells
Text: (§1) Transfected Chinese hamster ovary (CHO) cell lines were acquired and maintained as previously described, [20]. These included separate cell lines stably expressing human GCGR (hGCGR), mouse GCGR, rhesus GGCR, glucose-dependent insulinotropic peptide receptor (GIPR), GLP-1 receptor (GLP-1R), pituitary adenylate cyclase-activating polypeptide receptor type 1 (PAC1R), and vasoactive adenylate cyclase-activating polypeptide receptor type 2 (VPAC2R). Inhibition of glucagon binding to hGCGR was assayed in cell membranes prepared from the line of CHO cells that expressed the hGCGR. Functional antagonism was assayed by measuring the production of cAMP in intact CHO cells stimulated by agonists specific for their cognate receptors (i.e., glucagon for GCGR-expressing cell lines, GIP for the GIPR-expressing line, etc.). Primary human hepatocytes were obtained from In Vitro Technologies (Baltimore, MD) and glucagon-stimulated glycogenolysis was studied in these as previously described.

[2] = hGCGR.ob/ob mice, 10 mg/kg•day food admixture, 5 weeks
[3] = target: T2, hepatic hGCGR (Homo sapiens, UniProt P47871); test: In vivo inhibition of hepatic 125I-glucagon binding (hGCGR occupancy) in hGCGR mouse
T2 construct: a transgenic line of mouse that expresses the hGCGR instead of the murine GCGR; from tissue; host or cells: liver of hGCGR mouse, in vivo
T2 sequence (P47871 26-477): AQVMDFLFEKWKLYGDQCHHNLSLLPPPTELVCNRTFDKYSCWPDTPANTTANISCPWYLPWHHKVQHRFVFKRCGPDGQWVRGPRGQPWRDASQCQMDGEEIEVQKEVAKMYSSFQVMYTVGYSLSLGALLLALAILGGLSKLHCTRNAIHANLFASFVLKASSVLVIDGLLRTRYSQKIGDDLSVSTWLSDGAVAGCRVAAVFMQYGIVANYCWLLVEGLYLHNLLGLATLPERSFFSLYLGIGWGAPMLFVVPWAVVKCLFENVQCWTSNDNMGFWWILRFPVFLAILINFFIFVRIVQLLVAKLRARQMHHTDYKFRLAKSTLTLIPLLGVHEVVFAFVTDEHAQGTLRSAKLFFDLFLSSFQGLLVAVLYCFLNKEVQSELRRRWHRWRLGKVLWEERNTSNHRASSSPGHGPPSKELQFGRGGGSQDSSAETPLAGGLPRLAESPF
Method: Inhibition of ^125I-glucagon binding to hGCGR (a measure of hGCGR occupancy by antagonist) was assayed in hGCGR mouse liver in vivo as previously described. Glycogen content of perfused hGCGR mouse liver was measured as previously described. In brief, livers were perfused ex vivo with Ringers solution containing 6.7 mM [2-^13C]pyruvate while ^13C content (indicative of accumulated [^13C]glycogen) was monitored dynamically by nuclear magnetic resonance imaging.
Figure 2 In vivo inhibition of hepatic ^125I-glucagon binding in the hGCGR mouse following (A) acute and (B) chronic dosing with GRA1. The data are mean (±SEM) percent reductions in liver ^125I-glucagon content measured (A) 1, 3, 5, and 8 h after a single oral dose of 3 mg/kg GRA1, and (B) after treatment for 30 days with control diet or food/drug admixtures that provided 3, 6, 10, or 30 mg/kg·day GRA1.

[4] = system: rhesus monkey liver; test: Hepatic gene expression (Affymetrix microarray of liver biopsies) in rhesus monkeys; format: in vivo; settings: 30 mg/kg twice daily
Method: Hepatic gene expression was assessed by liver biopsy in adult rhesus monkeys that had been treated twice daily for 1 and 6 days with 30 mg/kg GRA1 or vehicle. The compound was administered to the animals orally in yogurt or a similar treat while they were housed in their home cages. The animals were fasted for approximately 16 h prior to performing liver biopsies laparoscopically, under anesthesia. On biopsy days, animals received their morning doses of GRA1 2 h before the biopsies were performed.
Total RNA was processed for Affymetrix microarray analysis as previously described. Briefly, total RNA was isolated from frozen tissues after homogenizing in TRIzol reagent (Invitrogen, Carlsbad, CA) and processed using RNeasy kits (QIAGEN, Valencia, CA) according to manufacturers' instructions. Sample amplification, labeling, and microarray processing were performed by the Covance Genomics Laboratory in Seattle, WA using the Affymetrix catalog Rhesus array (Affymetrix, Santa Clara, CA). One-way ANOVA analyses were performed with Matlab (The Mathworks, Natick, MA). Probesets had to pass a pre-filter of Affymetrix MAS5 present call p value <0.05 in >50% of the samples to qualify for further analysis. Differentially expressed genes (probesets) were selected with 1.2-fold change and ANOVA p value <0.05.

[5] = target: T1, human GCGR (hGCGR); test: Inhibition of 125I-glucagon binding to hGCGR in membranes of CHO cells expressing hGCGR; settings: CHO cell membranes
Text: as §1

T1 sequence (P47871 26-477): as above

For `COc1ccc2cc(-c3cc(-c4cc(C(F)(F)F)ccc4F)nn3[C@@H](C)c3ccc(C(=O)NCCC(=O)O)cc3)ccc2c1` [GRA1, N-[4-((1S)-1-{3-(2-fluoro-5-trifluoromethylphenyl)-5-[6-methoxynaphth-2-yl]-1H-pyrazol-1-yl}ethyl)benzoyl]-β-alanine], the IC50 [1] was 12 nM, the “Mean GRA1 plasma concentration” value ([2]; 4 PM) was 0.77 ± 0.2 µM and the “Mean GRA1 plasma concentration” value ([2]; 9AM) was 1.7 ± 0.5 µM. The receptor occupancy at 3 mg/kg ([3]; 30 days food admixture, 3 mg/kg·day, read-out: Receptor occupancy) was 71%, the receptor occupancy at 6 mg/kg ([3]; 30 days food admixture, 6 mg/kg·day) was 78% and the receptor occupancy at 10 mg/kg ([3]; 30 days food admixture, 10 mg/kg·day) was 83%. The receptor occupancy at 30 mg/kg ([3]; 30 days food admixture, 30 mg/kg·day) was 93%, the receptor occupancy at 3 mg/kg ([3]; po, single oral dose 3 mg/kg, 1 h postdose, read-out: Receptor occupancy) was 64% and the receptor occupancy at 3 mg/kg ([3]; po, single oral dose 3 mg/kg, 3 h postdose, read-out: Receptor occupancy) was 71%. It also gave a receptor occupancy at 3 mg/kg ([3]; po, single oral dose 3 mg/kg, 5 h postdose, read-out: Receptor occupancy) of 65%, a receptor occupancy at 3 mg/kg ([3]; po, single oral dose 3 mg/kg, 8 h postdose, read-out: Receptor occupancy) of 73% and a receptor occupancy at 3 mg/kg ([3]; po, single oral dose 3 mg/kg, for 1–8 h, read-out: Reduction of in vivo occupancy of hepatic hGCGR by 125I-glucagon) of 64 to 73%. For the same compound, the “AASS (aminoadipate-semialdehyde synthase) hepatic expression, fold difference vs vehicle” value ([4]; Day 1) was −2.0 fold, the “AGXT2L1 hepatic expression, fold difference vs vehicle” value ([4]; Day 1) was −1.5 fold and the “ASL (argininosuccinate lyase) hepatic expression, fold difference vs vehicle” value ([4]; Day 1) was −1.5 fold. For the same compound, the “BCKDHB hepatic expression, fold difference vs vehicle” value ([4]; Day 1) was −1.4 fold, the “DDC (dopa decarboxylase) hepatic expression, fold difference vs vehicle” value ([4]; Day 1) was −1.4 fold and the “FH (fumarate hydratase) hepatic expression, fold difference vs vehicle” value ([4]; Day 1) was −1.2 fold. For the same compound, the “GCKR (glucokinase regulator) hepatic expression, fold difference vs vehicle” value ([4]; Day 1) was 1.5 fold, the “GPT (alanine aminotransferase) hepatic expression, fold difference vs vehicle” value ([4]; Day 1) was −1.5 fold and the “HPD (4-hydroxyphenylpyruvate dioxygenase) hepatic expression, fold difference vs vehicle” value ([4]; Day 1) was −1.3 fold. For the same compound, the “KMO (kynurenine 3-monooxygenase) hepatic expression, fold difference vs vehicle” value ([4]; Day 1) was −1.3 fold, the “OAT (ornithine aminotransferase) hepatic expression, fold difference vs vehicle” value ([4]; Day 1) was −1.9 fold and the “SDS (serine dehydratase) hepatic expression, fold difference vs vehicle” value ([4]; Day 1) was −8.8 fold. For the same compound, the “SDSL (serine dehydratase-like) hepatic expression, fold difference vs vehicle” value ([4]; Day 1) was −1.6 fold, the “SLC7A2 hepatic expression, fold difference vs vehicle” value ([4]; Day 1) was −1.8 fold and the “TAT (tyrosine aminotransferase) hepatic expression, fold difference vs vehicle” value ([4]; Day 1) was −1.8 fold. For the same compound, the “ARG1 (arginase, liver) hepatic expression, fold difference vs vehicle” value ([4]; Day 1 (ns)) was −1.1 fold, the “GCK (glucokinase) hepatic expression, fold difference vs vehicle” value ([4]; Day 1 (ns)) was 2.4 fold and the “GLS2 (glutaminase 2) hepatic expression, fold difference vs vehicle” value ([4]; Day 1 (ns)) was −1.3 fold. For the same compound, the “GOT1 hepatic expression, fold difference vs vehicle” value ([4]; Day 1 (ns)) was −1.5 fold, the “PAH (phenylalanine hydroxylase) hepatic expression, fold difference vs vehicle” value ([4]; Day 1 (ns)) was −1.5 fold and the “SLC1A2 hepatic expression, fold difference vs vehicle” value ([4]; Day 1 (ns)) was −1.6 fold. The “AASS (aminoadipate-semialdehyde synthase) hepatic expression, fold difference vs vehicle” value ([4]; Day 6) was −3.0 fold, the “AGXT2L1 hepatic expression, fold difference vs vehicle” value ([4]; Day 6) was −1.8 fold and the “ARG1 (arginase, liver) hepatic expression, fold difference vs vehicle” value ([4]; Day 6) was −1.3 fold. For the same compound, the “ASL (argininosuccinate lyase) hepatic expression, fold difference vs vehicle” value ([4]; Day 6) was −1.6 fold, the “BCKDHB hepatic expression, fold difference vs vehicle” value ([4]; Day 6) was −1.3 fold and the “FH (fumarate hydratase) hepatic expression, fold difference vs vehicle” value ([4]; Day 6) was −1.2 fold. For the same compound, the “GCK (glucokinase) hepatic expression, fold difference vs vehicle” value ([4]; Day 6) was 5.4 fold, the “GCKR (glucokinase regulator) hepatic expression, fold difference vs vehicle” value ([4]; Day 6) was 1.3 fold and the “GLS2 (glutaminase 2) hepatic expression, fold difference vs vehicle” value ([4]; Day 6) was −1.6 fold. For the same compound, the “GOT1 hepatic expression, fold difference vs vehicle” value ([4]; Day 6) was −2.1 fold, the “GPT (alanine aminotransferase) hepatic expression, fold difference vs vehicle” value ([4]; Day 6) was −1.3 fold and the “HPD (4-hydroxyphenylpyruvate dioxygenase) hepatic expression, fold difference vs vehicle” value ([4]; Day 6) was −1.2 fold. For the same compound, the “KMO (kynurenine 3-monooxygenase) hepatic expression, fold difference vs vehicle” value ([4]; Day 6) was −1.5 fold, the “OAT (ornithine aminotransferase) hepatic expression, fold difference vs vehicle” value ([4]; Day 6) was −3.6 fold and the “PAH (phenylalanine hydroxylase) hepatic expression, fold difference vs vehicle” value ([4]; Day 6) was −2.1 fold. For the same compound, the “SDS (serine dehydratase) hepatic expression, fold difference vs vehicle” value ([4]; Day 6) was −27.1 fold, the “SLC1A2 hepatic expression, fold difference vs vehicle” value ([4]; Day 6) was −7.6 fold and the “SLC7A2 hepatic expression, fold difference vs vehicle” value ([4]; Day 6) was −2.4 fold. For the same compound, the “DDC (dopa decarboxylase) hepatic expression, fold difference vs vehicle” value ([4]; Day 6 (ns)) was −1.1 fold, the “SDSL (serine dehydratase-like) hepatic expression, fold difference vs vehicle” value ([4]; Day 6 (ns)) was −1.5 fold and the “TAT (tyrosine aminotransferase) hepatic expression, fold difference vs vehicle” value ([4]; Day 6 (ns)) was −1.7 fold. The IC50 [5] was 4 nM.
